Data reported in article PMC6277767, “Broad and Region-Specific Impacts of the Synthetic Cannabinoid CP 55,940 in Adolescent and Adult Female Mouse Brains” (Frontiers in Molecular Neuroscience, 2018).

Tested on: CD1 female mouse brain lipidome
Test: Brain-region lipid levels (HPLC/MS/MS lipidomics) 2 h after single i.p. 3 mg/kg CP 55,940 vs vehicle
Format: in vivo
Set-up: N-arachidonoyl phenylalanine level, Mean / N-stearoyl tryptophan level, Mean / N-stearoyl proline level, Mean / N-stearoyl leucine level, Mean / N-stearoyl phenylalanine level, Mean / N-stearoyl serine level, Mean / N-stearoyl methionine level, Mean: unit: moles per gram
Conditions: hippocampus, adult, 3 mg/kg CP 55,940
Method: The Bloomington Institutional Animal Care and Use Committee of Indiana University reviewed and approved the animal procedures. Female mice from the CD1 strain were utilized to match our study examining THC’s effects on the brain lipidome ([Leishman et al., 2018]). Mice were given a single i.p. injection of either 3 mg/kg CP or 1:1:18 cremophor:ethanol:saline vehicle (please refer to the section “3 mg/kg CP Is Relevant for Synthetic Cannabinoid Abuse and Has Stronger Effects on the Female Mouse Brain Lipidome During Adolescence” for a justification of dose and use of female mice). Three different age groups were given injections: PND 35 and PND 50 adolescents, and adult mice (PND 113). At least eight mice in each age group received CP and at least eight received vehicle. Matching the THC study time course ([Leishman et al., 2018]), mice were sacrificed via rapid decapitation 2 h after injection. Brains were immediately removed and flash-frozen in liquid nitrogen, and then stored at -80°C until dissections were performed. Brains were dissected on an ice-cold dissection plate into the following regions: STR, HIPP, CER, THAL, CTX, HYP, MID, and STEM. These abbreviations for these brain areas will be used exclusively when discussing the results generated by these specific dissections. Each dissected area was immediately placed in liquid nitrogen and then stored at -80°C until used for lipid extraction.
Tissue extracts were performed as previously described ([Bradshaw et al., 2006]; [Stuart et al., 2013]; [Raboune et al., 2014]; [Leishman et al., 2016a],[b], [2017], [2018]). First, samples were shock frozen in liquid nitrogen, weighed, and transferred to a centrifuge tube. The mass of the largest sample was multiplied by 50 to determine how many milliliters of HPLC-grade methanol (Fisher, Fair Lawn, NJ, United States) to add. Then, samples were spiked with 500 pmol deuterium-labeled NAGly (d8NAGly; Cayman Chemical, Ann Arbor, MI, United States). Samples were placed on ice in darkness for 2 h then individually homogenized and centrifuged at 19,000 × g for 20 min at 20°C. Supernatants were diluted with HPLC water (purified in house) to make a solution of 75% water, 25% supernatant. Lipids were partially purified on C18 solid phase extraction columns (Agilent, Palo Alto, CA, United States). A series of four elutions with 1.5 mL of 60%, 75%, 85%, and 100% methanol were collected ([Stuart et al., 2013]; [Leishman et al., 2016a],[b], [2018]).
As previously described ([Bradshaw et al., 2006]; [Tan et al., 2006]; [Smoum et al., 2010]; [Stuart et al., 2013]; [Tortoriello et al., 2013]; [Raboune et al., 2014]; [Leishman et al., 2016a],[b], [2017], [2018]), samples were analyzed using an Applied Biosystems API 3000 triple quadrupole mass spectrometer with electrospray ionization (Foster City, CA, United States). Using an Agilent XDB-C18 reversed phase analytical column and optimized mobile phase gradients, 20 μL from each elution were chromatographed. Two Shimadzu 10ADvp pumps (Columbia, MD, United States) provided the pressure for gradient elution. Mobile phase A: 20% methanol, 80% water (v/v) and 1 mM ammonium acetate (Sigma, St. Louis, MO, United States). Mobile phase B: 100% methanol, 1 mM ammonium acetate. Every method run began with 0% mobile phase B, reached 100% mobile phase B flowing at 0.2 mL/min, and gradually returned to 0% mobile phase B.
This screening library will be referred to as the lipidome when discussing data from this study. HPLC/MS/MS data were analyzed using Analyst software (Applied Biosystems) ([Bradshaw et al., 2006]; [Tan et al., 2006]; [Stuart et al., 2013]; [Tortoriello et al., 2013]; [Raboune et al., 2014]; [Leishman et al., 2016a],[b], [2017], [2018]). Chromatograms (Supplementary Figure 3) were generated by determining the retention time of analytes from the analytical column with a [M-1] or [M+1] parent peak and a fragmentation peak corresponding to the programmed values. […]

Structure (SMILES): CCCCCCC(C)(C)c1ccc([C@@H]2C[C@H](O)CC[C@H]2CCCO)c(O)c1 [CP 55,940]
- 6-ketoPGF1α level, Mean: 2.42E-11
- 11-OH-THC level, Mean: BDL
- 11-nor-9-carboxyTHC level, Mean: BDL
- Arachidonic acid level, Mean: 1.89E-09
- Cannabidiol level, Mean: BDL
- Linoleic acid level, Mean: 7.37E-10
- N- stearoyl valine level, Mean: 3.95E-14
- N-arachidonoyl GABA level, Mean: 2.86E-11
- N-arachidonoyl GABA: Direction (relative to Veh): ↓
- N-arachidonoyl GABA: Magnitude (x Veh level): 0.84 x Veh level
- N-arachidonoyl alanine level, Mean: 3.66E-12
- N-arachidonoyl alanine: Direction (relative to Veh): ↓
- N-arachidonoyl alanine: Magnitude (x Veh level): 0.76 x Veh level
- N-arachidonoyl dopamine level, Mean: BDL
- N-arachidonoyl ethanolamine level, Mean: 3.15E-11
- N-arachidonoyl glycine level, Mean: 2.03E-12
- N-arachidonoyl glycine: Direction (relative to Veh): ↓
- N-arachidonoyl glycine: Magnitude (x Veh level): 0.72 x Veh level
- N-arachidonoyl methionine level, Mean: PISSR
- N-arachidonoyl phenylalanine level, Mean: 1.12E-13
- N-arachidonoyl phenylalanine: Direction (relative to Veh): ↓
- N-arachidonoyl phenylalanine: Magnitude (x Veh level): 0.60 x Veh level
- N-arachidonoyl proline level, Mean: BDL
- N-arachidonoyl serine level, Mean: PISSR
- N-arachidonoyl taurine level, Mean: 2.3E-10
- N-arachidonoyl tryptophan level, Mean: BDL
- N-arachidonoyl tyrosine level, Mean: PISSR
- N-docosahexaenoyl GABA level, Mean: 7.15E-12
- N-docosahexaenoyl GABA: Direction (relative to Veh): ↓
- N-docosahexaenoyl GABA: Magnitude (x Veh level): 0.84 x Veh level
- N-docosahexaenoyl alanine level, Mean: PISSR
- N-docosahexaenoyl ethanolamine level, Mean: 2.18E-11
- N-docosahexaenoyl glycine level, Mean: 1.21E-13
- N-docosahexaenoyl leucine level, Mean: PISSR
- N-docosahexaenoyl methionine level, Mean: BDL
- N-docosahexaenoyl phenylalanine level, Mean: PISSR
- N-docosahexaenoyl proline level, Mean: BDL
- N-docosahexaenoyl serine level, Mean: PISSR
- N-docosahexaenoyl tryptophan level, Mean: BDL
- N-docosahexaenoyl tyrosine level, Mean: PISSR
- N-docosahexaenoyl valine level, Mean: PISSR
- N-linoleoyl GABA level, Mean: PISSR
- N-linoleoyl alanine level, Mean: 3.37E-13
- N-linoleoyl ethanolamine level, Mean: 2.58E-11
- N-linoleoyl glycine level, Mean: 1.16E-13
- N-linoleoyl leucine level, Mean: PISSR
- N-linoleoyl methionine level, Mean: BDL
- N-linoleoyl phenylalanine level, Mean: PISSR
- N-linoleoyl proline level, Mean: BDL
- N-linoleoyl serine level, Mean: 7.17E-11
- N-linoleoyl tryptophan level, Mean: BDL
- N-linoleoyl tyrosine level, Mean: PISSR
- N-linoleoyl valine level, Mean: PISSR
- N-nervonoyl valine level, Mean: BDL
- N-oleoyl GABA level, Mean: 1.55E-11
- N-oleoyl GABA: Direction (relative to Veh): ↓
- N-oleoyl GABA: Magnitude (x Veh level): 0.88 x Veh level
- N-oleoyl alanine level, Mean: 3.73E-12
- N-oleoyl dopamine level, Mean: BDL
- N-oleoyl ethanolamine level, Mean: 1.06E-10
- N-oleoyl glycine level, Mean: 5.21E-13
- N-oleoyl leucine level, Mean: 1.44E-12
- N-oleoyl methionine level, Mean: PISSR
- N-oleoyl phenylalanine level, Mean: 3.98E-13
- N-oleoyl phenylalanine: Direction (relative to Veh): ↓
- N-oleoyl phenylalanine: Magnitude (x Veh level): 0.70 x Veh level
- N-oleoyl proline level, Mean: BDL
- N-oleoyl serine level, Mean: 3.49E-10
- N-oleoyl tryptophan level, Mean: BDL
- N-oleoyl tyrosine level, Mean: 4.1E-13
- N-oleoyl valine level, Mean: PISSR
- N-palmitoyl GABA level, Mean: 2.14E-11
- N-palmitoyl alanine level, Mean: 3.64E-12
- N-palmitoyl ethanolamine level, Mean: 4.41E-11
- N-palmitoyl glycine level, Mean: 1.22E-12
- N-palmitoyl leucine level, Mean: 2.6E-12
- N-palmitoyl methionine level, Mean: 1.73E-12
- N-palmitoyl phenylalanine level, Mean: 4.39E-13
- N-palmitoyl proline level, Mean: BDL
- N-palmitoyl serine level, Mean: 1.33E-11
- N-palmitoyl tryptophan level, Mean: BDL
- N-palmitoyl tyrosine level, Mean: 9.98E-13
- N-palmitoyl valine level, Mean: 1.27E-13
- N-stearoyl GABA level, Mean: 1.57E-11
- N-stearoyl alanine level, Mean: 2.38E-12
- N-stearoyl ethanolamine level, Mean: 1.7E-11
- N-stearoyl glycine level, Mean: 2.12E-12
- N-stearoyl leucine level, Mean: 2.18E-12
- N-stearoyl phenylalanine level, Mean: 3.31E-13
- N-stearoyl proline level, Mean: BDL
- N-stearoyl serine level, Mean: 2.78E-11
- N-stearoyl serine: Direction (relative to Veh): ↓
- N-stearoyl serine: Magnitude (x Veh level): 0.85 x Veh level
- N-stearoyl tryptophan level, Mean: BDL
- N-stearoyl tyrosine level, Mean: 1.97E-13
- Oleic acid level, Mean: 1.43E-09
- PGE2: Direction (relative to Veh): ↑
- PGE2: Magnitude (x Veh level): 1.18 x Veh level
- PGE2 level, Mean: 3.37E-10
- PGF2α: Direction (relative to Veh): ↑
- PGF2α: Magnitude (x Veh level): 1.30 x Veh level
- PhosphoLEA level, Mean: 1.8E-11
